Data as given in US11071488B2, “Method for determining the likelihood of torsades de pointes being induced” (ASSISTANCE PUBLIQUE—HOPITAUX DE PARIS, priority 2016, dated 2021).
Where two headings read alike, the source gives them in different places.

Key:
IKr channel [1] = biological target: T1, IKr channel (Homo sapiens, UniProt Q12809); details: for double peaks (notches) three hours after taking sotalol: 80 mg sotalol
Description: The QTcF, TAmp and TpTe were measured according to the same protocol as for example 1, before and three hours after administration of a single oral dose of sotalol at 80 mg.
The ΔQTcF, ΔTpTe and ΔTAmp were also calculated.

IKr potassium channel = IKr potassium channel (Homo sapiens, UniProt Q12809); details: cited from earlier work
IKr channel [2] = biological target: T1, IKr channel; experiment: ECG changes three hours after a single oral dose of 80 mg sotalol (GENEREPOL cohort, Example 1); type: in vivo; design: from tissue; host or cells: heart (ventricular myocardium) of living human volunteers; surface ECG read-out; details: H3
Description: The cohort of patients was that of the GENEREPOL study, and consisted of 995 volunteers in good health, from 18 to 60 years old, of European or North African origin. The objective of this study was to identify genetic predispositions linked to the inhibition of the IKr channel after administration of 80 mg sotalol, with a body mass index between 19 and 29 kg/m^2, informed consent having been received. […]
An intravenous catheter was inserted for taking blood samples. The ECG of the patients was then recorded using the Cardioplug device (Cardionics Inc®, Brussels, Belgium) connected to a laptop computer. […] Three hours after sotalol had been taken ([…]), the ECG was again recorded (in triplicate) after the subjects had remained lying on their back for 10 minutes and before lunch. […]
The QTcF, TpTe and TAmp and the presence of notches (double peak) in the T wave were quantified. […]
The quantitative analysis of the QTcF, TpTe and TAmp was carried out by two trained investigators, in order to limit the inter-evaluator variability.
TpTe was measured by the tangent method, in triplicate, on a representative beat (average representation of an ECG of 10 seconds) on the V3, V4 and V5 leads. […]
QTcF was measured by the tangent method on the DII lead for three consecutive beats and the average value of an evaluation in triplicate was retained. […]

T1 sequence (Q12809 whole entry): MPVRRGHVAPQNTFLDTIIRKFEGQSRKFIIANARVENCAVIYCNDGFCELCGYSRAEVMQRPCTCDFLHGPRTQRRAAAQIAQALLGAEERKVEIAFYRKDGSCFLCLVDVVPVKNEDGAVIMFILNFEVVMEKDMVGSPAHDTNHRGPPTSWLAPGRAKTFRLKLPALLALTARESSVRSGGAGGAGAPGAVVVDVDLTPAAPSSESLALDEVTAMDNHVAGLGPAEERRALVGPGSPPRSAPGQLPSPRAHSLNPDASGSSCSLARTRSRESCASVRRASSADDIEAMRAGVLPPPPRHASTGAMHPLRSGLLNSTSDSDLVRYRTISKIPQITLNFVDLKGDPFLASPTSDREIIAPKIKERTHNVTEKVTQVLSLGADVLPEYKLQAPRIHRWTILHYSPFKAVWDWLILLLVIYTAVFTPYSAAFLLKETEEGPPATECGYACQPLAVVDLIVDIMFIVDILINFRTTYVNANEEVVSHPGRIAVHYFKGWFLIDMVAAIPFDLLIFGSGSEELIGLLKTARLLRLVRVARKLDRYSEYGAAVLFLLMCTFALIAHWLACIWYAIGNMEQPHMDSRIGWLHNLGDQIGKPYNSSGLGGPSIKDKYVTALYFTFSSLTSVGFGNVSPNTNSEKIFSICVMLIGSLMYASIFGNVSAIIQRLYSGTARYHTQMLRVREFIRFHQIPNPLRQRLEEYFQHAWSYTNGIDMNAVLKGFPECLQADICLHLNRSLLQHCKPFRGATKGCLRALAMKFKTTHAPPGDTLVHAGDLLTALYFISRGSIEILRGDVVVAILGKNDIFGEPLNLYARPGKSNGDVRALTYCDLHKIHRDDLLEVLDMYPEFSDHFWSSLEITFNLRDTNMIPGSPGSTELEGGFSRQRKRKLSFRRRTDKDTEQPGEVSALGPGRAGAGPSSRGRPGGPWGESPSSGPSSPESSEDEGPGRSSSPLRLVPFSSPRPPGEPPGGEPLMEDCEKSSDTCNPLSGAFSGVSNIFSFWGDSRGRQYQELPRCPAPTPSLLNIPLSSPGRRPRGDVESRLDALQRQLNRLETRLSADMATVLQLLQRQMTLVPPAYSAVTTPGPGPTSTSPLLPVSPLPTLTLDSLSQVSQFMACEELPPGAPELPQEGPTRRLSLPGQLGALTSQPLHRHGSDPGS
IKr potassium channel, sequence (Q12809 whole entry): as above

SMILES | double peaks (notches) three hours after taking sotalol (IKr channel [1]; women taking drospirenone) [%] | risk of induction of torsades de pointes (IKr potassium channel; dose-dependent) | increase in QT/QTc (IKr potassium channel; sotalol at 80 mg) | induction of an episode of torsade de pointes (IKr potassium channel; sotalol at 80 mg) | time of maximum concentration after oral intake (IKr potassium channel; taken orally) | double peaks (notches) three hours after taking sotalol (IKr channel [1]; women not taking an oral contraceptive) [%] | plasma sotalol concentration (IKr channel [1]; women taking drospirenone vs women with no contraception) | subjects exhibiting a double peak (notch) (IKr channel [2]; first (exploration) cohort, 40 subjects) [%] | subjects exhibiting a double peak (notch) (IKr channel [2]; second (replication) cohort, 51 subjects) [%]
C[C@]12CCC(=O)C=C1[C@@H]1C[C@@H]1[C@H]1[C@@H]3[C@@H]4C[C@@H]4[C@@]4(CCC(=O)O4)[C@@]3(C)CC[C@@H]12 [drospirenone] | 25.8 | – | – | – | – | – | – | – | –
CC(C)NCC(O)c1ccc(NS(C)(=O)=O)cc1 (stereo not drawn) [sotalol] | – | up to 7 % of patients treated | approximately 20 ms | does not induce an episode of torsade de pointes | approximately 3 hours | 13.4 | No difference | 8 | 10
